From US20030143729A1 (Synaptic Pharmaceutical Corporation, priority 1992, published 2003)
Where two headings read alike, the source gives them in different places.

Key:
animals = conditions: in vivo; cited from earlier work
human GAT-1 [1] = target: T1, human GAT-1 (Homo sapiens, UniProt P30531); conditions: read-out: IC50 for inhibition of [3H]GABA uptake, human GAT-1
Procedure: (§1) Cells were grown under standard conditions (37° C., 5% CO2) in Dulbecco's modified Eagles's medium (GIBCO, Grand Island, N.Y.).
(§2) Cells grown in 24-well plates were washed 3× with HEPES-buffered saline (HBS, in mM: NaCl, 150; HEPES, 20; CaCl2, 1; glucose, 10; KCl, 5; MgCl2, 1; pH 7.4) and allowed to equilibrate on a 37° C. slide warmer. After 10 minutes the medium was removed and unlabeled drugs in HBS were added (450 μl/well). […] Plates were incubated at 37° C. for 10 minutes, then washed rapidly 3× with ice-cold HBS, using a 24-position plate washer (Brandel, Gaithersburg, Mass.; model PW-12). Cells were solubilized with 0.05% sodium deoxycholate/0.1N NaOH (0.25 ml/well), an aliquot neutralized with 1N HCl, and radioactivity was determined by scintillation counting. Protein was quantified in an aliquot of the solubilized cells using a BIO-RAD protein assay kit, according to the manufacturer's directions.
(§3) Lipophilic inhibitors were dissolved in DMSO.
(§4) Data Analysis: Competition curves were conducted in duplicate, using 10 concentrations of unlabeled drug.

hBGT-1 = target: T2, hBGT-1 (Homo sapiens, UniProt P48065); conditions: read-out: IC50 for inhibition of [3H]GABA uptake, human BGT-1; stable cell line; 50 nM [3H]GABA
T2 sequence (P48065 1-614): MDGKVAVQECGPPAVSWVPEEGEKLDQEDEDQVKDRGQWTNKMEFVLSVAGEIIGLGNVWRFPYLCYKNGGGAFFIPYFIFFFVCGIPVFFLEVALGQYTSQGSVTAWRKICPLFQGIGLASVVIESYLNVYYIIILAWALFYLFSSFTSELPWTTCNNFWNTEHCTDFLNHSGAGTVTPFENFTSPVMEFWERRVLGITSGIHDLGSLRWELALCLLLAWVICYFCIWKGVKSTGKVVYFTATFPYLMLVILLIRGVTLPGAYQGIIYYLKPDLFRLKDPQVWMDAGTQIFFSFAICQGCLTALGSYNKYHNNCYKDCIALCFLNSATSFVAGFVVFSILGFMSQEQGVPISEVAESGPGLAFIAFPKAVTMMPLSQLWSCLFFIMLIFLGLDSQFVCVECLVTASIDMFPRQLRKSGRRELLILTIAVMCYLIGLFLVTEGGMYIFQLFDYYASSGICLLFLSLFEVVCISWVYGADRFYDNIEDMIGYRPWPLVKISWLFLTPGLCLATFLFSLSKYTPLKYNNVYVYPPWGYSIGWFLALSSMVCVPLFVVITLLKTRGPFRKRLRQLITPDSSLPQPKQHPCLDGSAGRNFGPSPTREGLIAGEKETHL
Procedure: as §1, §2, §3, §4

human GAT-1 [2] = target: T1, human GAT-1; assay: cell-based
Procedure: as §1, §2, §3, §4

T1 sequence (P30531 whole entry): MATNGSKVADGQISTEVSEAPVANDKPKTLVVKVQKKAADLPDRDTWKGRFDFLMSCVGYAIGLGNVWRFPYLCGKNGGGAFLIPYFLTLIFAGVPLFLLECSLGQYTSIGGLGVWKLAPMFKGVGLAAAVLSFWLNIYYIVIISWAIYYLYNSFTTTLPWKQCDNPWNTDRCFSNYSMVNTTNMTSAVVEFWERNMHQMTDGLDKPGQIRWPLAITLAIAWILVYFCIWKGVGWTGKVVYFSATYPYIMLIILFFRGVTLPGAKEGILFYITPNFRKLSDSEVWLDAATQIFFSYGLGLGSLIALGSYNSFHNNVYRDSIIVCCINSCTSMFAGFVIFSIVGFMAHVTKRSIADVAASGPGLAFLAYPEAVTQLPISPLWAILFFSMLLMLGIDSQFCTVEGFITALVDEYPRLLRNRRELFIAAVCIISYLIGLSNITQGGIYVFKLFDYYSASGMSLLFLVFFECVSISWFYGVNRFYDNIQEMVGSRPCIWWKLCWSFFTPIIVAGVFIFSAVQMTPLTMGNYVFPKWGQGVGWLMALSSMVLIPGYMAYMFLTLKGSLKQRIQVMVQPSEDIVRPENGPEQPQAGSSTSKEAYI

| Compound | anticonvulsive activity in animals (animals) | IC50 (human GAT-1 [1]) | IC50 (hBGT-1) | IC50 (human GAT-1 [2]) |
| --- | --- | --- | --- | --- |
| O=C(O)C1=CCCN(CCON=C(c2ccccc2)c2ccccc2)C1 [NNC-711] | anticonvulsive activity | 0.04 ± 0.01 µM | 622 ± 265 µM |  |
| NCCC(=O)O [β-alanine] |  |  |  | 5690 ± 1890 µM |
